Test results reported in patent publication US8222280B2, “Ether compounds with nitrogen-containing 5-member heterocycle and uses thereof” (Sinochem Corporation, priority 2008, dated 2012).

What was measured:
[1] = system: second instar larvae of diamond backmoth (Plutella xylostella); experiment: Insecticidal activity against diamond backmoth, leaf disc spraying by airbrush; type: in vivo; conditions: mortality after 72 hrs, sprayed cabbage leaf disc
Method: To determine the insecticidal and acaricidal activity of selected compounds by the following procedures:
Compounds were dissolved in mixed solvent (acetone:methanol=1:1), and diluted to required concentration with water containing 0.1% of tween 80.
The second instar larvae of diamond backmoth (Plutella xylostella) were used in biological test. The method of spraying by airbrush was employed.
Determination of insecticidal activity against diamond backmoth: The cabbage leaves were made into plates of 1 cm diameter by punch. A test solution (0.5 ml) was sprayed by airbrush at the pressure of 0.7 kg/cm^2 to both sides of every plate. 10 Second instar larvae were put into the petri-dishes after the leaf disc air-dried and 3 replicates were set for each treatment. Then the insects were maintained in observation room ([…], 60-70% R.H.). Scores were conducted and mortalities were calculated after 72 hrs.

wheat powdery mildew = experiment: Fungicidal activity in vivo on potted plants; conditions: 400 ppm; sprayed on potted plant, inoculation after 24 hours, visual assessment after about 1 week
Method: Determination of fungicidal activities against plant diseases of selected compounds were carried out by the following procedure:
Determination of Fungicidal Activity In Vivo:
Plants were prepared in pot. Compounds were dissolved in acetone and diluted to required concentration by water containing 0.1% (wt) Tween80. Test solution was sprayed onto potted plant. Pathogen inoculation was carried out after 24 hours, then plants were hold in growth chambers maintaining constant temperature and moisture for infection. When untreated plant was under desirable disease severity (after 1 week approximately), assessment was carried out by visual observation.

| SMILES | control of the second instar larvae of diamond backmoth ([1]; dose 100 mg/L) | also measured |
| --- | --- | --- |
| Cn1nc(-c2ccccc2)cc1OCCCOc1c(Cl)cc(OCC=C(Cl)Cl)cc1Cl [Compound 1] | 100% | – |
| Cn1nc(-c2ccc(Cl)cc2)cc1OCCCOc1c(Cl)cc(OCC=C(Cl)Cl)cc1Cl [Compound 2] | 100% | control of wheat powdery mildew (wheat powdery mildew): more than 70%; control of the second instar larvae of diamond backmoth ([1]; dose 25 mg/L): 100% |
| CSc1ccc(-c2cc(OCCCOc3c(Cl)cc(OCC=C(Cl)Cl)cc3Cl)n(C)n2)cc1 [Compound 8] | 100% | – |
| Cn1nc(-c2ccc(Cl)cc2Cl)cc1OCCCOc1c(Cl)cc(OCC=C(Cl)Cl)cc1Cl [Compound 11] | 100% | – |
| COc1ccc(-c2cc(OCCCOc3c(Cl)cc(OCC=C(Cl)Cl)cc3Cl)n(C)n2)cc1 [Compound 13] | 100% | – |
| Cn1nc(-c2ccc(Br)cc2)cc1OCCCOc1c(Cl)cc(OCC=C(Cl)Cl)cc1Cl [Compound 16] | 100% | – |
| Cc1ccc(-c2cc(OCCCOc3c(Cl)cc(OCC=C(Cl)Cl)cc3Cl)n(C)n2)cc1 [Compound 17] | 100% | – |
| CCc1ccc(-c2cc(OCCCOc3c(Cl)cc(OCC=C(Cl)Cl)cc3Cl)n(C)n2)cc1 [Compound 18] | 100% | – |
| COc1ccccc1-c1cc(OCCCOc2c(Cl)cc(OCC=C(Cl)Cl)cc2Cl)n(C)n1 [Compound 24] | 100% | – |
| Cc1ccc(-c2cc(OCCCOc3c(Cl)cc(OCC=C(Cl)Cl)cc3Cl)n(C)n2)c(C)c1 [Compound 26] | 100% | – |
| CCCc1ccc(-c2cc(OCCCOc3c(Cl)cc(OCC=C(Cl)Cl)cc3Cl)n(C)n2)cc1 [Compound 38] | 100% | – |
| Cc1c(-c2ccccc2)nn(C)c1OCCCOc1c(Cl)cc(OCC=C(Cl)Cl)cc1Cl [Compound 76] | 100% | – |
| Cc1c(-c2ccc(Cl)cc2)nn(C)c1OCCCOc1c(Cl)cc(OCC=C(Cl)Cl)cc1Cl [Compound 77] | 100% | – |
| Cc1c(-c2ccc(Cl)cc2Cl)nn(C)c1OCCCOc1c(Cl)cc(OCC=C(Cl)Cl)cc1Cl [Compound 86] | 100% | – |
| Cc1ccc(-c2nn(C)c(OCCCOc3c(Cl)cc(OCC=C(Cl)Cl)cc3Cl)c2C)cc1 [Compound 92] | 100% | – |
| Cn1nc(-c2ccc(Cl)cc2)cc1OCCOc1c(Cl)cc(OCC=C(Cl)Cl)cc1Cl [Compound 225] | 100% | control of the second instar larvae of diamond backmoth ([1]; dose 25 mg/L): 100% |
| Cn1nc(-c2ccc(Cl)cc2)cc1OCCCCOc1c(Cl)cc(OCC=C(Cl)Cl)cc1Cl [Compound 247] | 100% | control of the second instar larvae of diamond backmoth ([1]; dose 25 mg/L): 100% |
| Cn1nc(-c2ccc(Cl)cc2)cc1OCCCCOc1ccc(OCC=C(Cl)Cl)cc1Cl [Compound 248] | 100% | control of the second instar larvae of diamond backmoth ([1]; dose 25 mg/L): 100% |
| Cc1c(-c2ccccc2)nn(C)c1OCCCCOc1c(Cl)cc(OCC=C(Cl)Cl)cc1Cl [Compound 257] | 100% | – |
| Cn1nc(OCCCOc2c(Cl)cc(OCC=C(Cl)Cl)cc2Cl)cc1-c1ccccc1 [Compound 268] | 100% | control of the second instar larvae of diamond backmoth ([1]; dose 25 mg/L): 100% |
| Cn1nc(OCCCOc2c(Cl)cc(OCC=C(Cl)Cl)cc2Cl)cc1-c1ccc(Cl)cc1 [Compound 269] | 100% | control of the second instar larvae of diamond backmoth ([1]; dose 25 mg/L): 100% |
| Cn1nc(OCCCOc2c(Cl)cc(OCC=C(Cl)Cl)cc2Cl)cc1-c1ccc(Cl)cc1Cl [Compound 278] | 100% | – |

| SMILES | control of the second instar larvae of diamond backmoth ([1]; dose 100 mg/L) | also measured |
| --- | --- | --- |
| COc1ccc(-c2cc(OCCCOc3c(Cl)cc(OCC=C(Cl)Cl)cc3Cl)nn2C)cc1 [Compound 280] | 100% | – |
| Cn1nc(OCCCOc2c(Cl)cc(OCC=C(Cl)Cl)cc2Cl)cc1-c1ccc(Br)cc1 [Compound 283] | 100% | – |
| Cc1ccc(-c2cc(OCCCOc3c(Cl)cc(OCC=C(Cl)Cl)cc3Cl)nn2C)cc1 [Compound 284] | 100% | – |
| Cc1ccc(-c2cc(OCCCOc3c(Cl)cc(OCC=C(Cl)Cl)cc3Cl)nn2C)c(C)c1 [Compound 293] | 100% | – |
| Cn1nc(OCCCOc2c(Cl)cc(OCC=C(Cl)Cl)cc2Cl)cc1-c1ccc(C(C)(C)C)cc1 [Compound 306] | 100% | – |
| Cc1c(OCCCOc2c(Cl)cc(OCC=C(Cl)Cl)cc2Cl)nn(C)c1-c1ccc(F)cc1 [Compound 352] | 100% | control of the second instar larvae of diamond backmoth ([1]; dose 25 mg/L): 100% |
| CCOc1ccc(-c2c(C)c(OCCCOc3c(Cl)cc(OCC=C(Cl)Cl)cc3Cl)nn2C)cc1 [Compound 356] | 100% | – |
| Cc1c(OCCCOc2c(Cl)cc(OCC=C(Cl)Cl)cc2Cl)nn(C)c1-c1ccc(Cl)cc1Cl [Compound 360] | 100% | – |
| Cc1c(OCCCOc2c(Cl)cc(OCC=C(Cl)Cl)cc2Cl)nn(C)c1-c1ccc(Cl)c(Cl)c1 [Compound 361] | 100% | – |
| COc1ccc(-c2c(C)c(OCCCOc3c(Cl)cc(OCC=C(Cl)Cl)cc3Cl)nn2C)cc1 [Compound 363] | 100% | – |
| Cc1ccc(-c2c(C)c(OCCCOc3c(Cl)cc(OCC=C(Cl)Cl)cc3Cl)nn2C)cc1 [Compound 367] | 100% | control of the second instar larvae of diamond backmoth ([1]; dose 25 mg/L): 100% |
| CCc1ccc(-c2c(C)c(OCCCOc3c(Cl)cc(OCC=C(Cl)Cl)cc3Cl)nn2C)cc1 [Compound 368] | 100% | – |
| Cc1ccc(-c2c(C)c(OCCCOc3c(Cl)cc(OCC=C(Cl)Cl)cc3Cl)nn2C)cc1C [Compound 377] | 100% | control of the second instar larvae of diamond backmoth ([1]; dose 25 mg/L): 100% |
| Cc1c(OCCCOc2c(Cl)cc(OCC=C(Cl)Cl)cc2Cl)nn(C)c1-c1ccc(C(C)C)cc1 [Compound 387] | 100% | control of the second instar larvae of diamond backmoth ([1]; dose 25 mg/L): 100% |
| Cc1c(OCCCOc2c(Cl)cc(OCC=C(Cl)Cl)cc2Cl)nn(C)c1-c1ccc(C(C)(C)C)cc1 [Compound 389] | 100% | – |
| Cn1nc(OCCOc2c(Cl)cc(OCC=C(Cl)Cl)cc2Cl)cc1-c1ccc(Cl)cc1 [Compound 500] | 100% | – |
| Cn1nc(OCCCCOc2c(Cl)cc(OCC=C(Cl)Cl)cc2Cl)cc1-c1ccc(Cl)cc1 [Compound 522] | 100% | – |
| Cc1c(OCCCCOc2c(Cl)cc(OCC=C(Cl)Cl)cc2Cl)nn(C)c1-c1ccccc1 [Compound 532] | 100% | – |
| Cc1ccc(-c2c(C)c(OCCCCOc3c(Cl)cc(OCC=C(Cl)Cl)cc3Cl)nn2C)cc1 [Compound 538] | 100% | – |
| ClC(Cl)=CCOc1cc(Cl)c(OCCCOc2cnn(-c3ccc(Cl)cc3)c2)c(Cl)c1 [Compound 546] | 100% | – |
| FC(F)(F)c1ccc(OCCCOc2c(Cl)cc(OCC=C(Cl)Cl)cc2Cl)nc1 [pyridalyl, Pyridalyl, reference compound] | 100% | control of the second instar larvae of diamond backmoth ([1]; dose 6.25 mg/L): 65%; control of the second instar larvae of diamond backmoth ([1]; dose 25 mg/L): 100% |
